Results published in PMC6934184, “Selective DNA-PKcs inhibition extends the therapeutic index of localized radiotherapy and chemotherapy” (The Journal of Clinical Investigation, 2019).

Target: T1, TAOK3 (JIK) (Homo sapiens, UniProt Q9H2K8)
T1 construct: purchased Thermo Fisher Scientific (Life Technologies) SelectScreen
Assay: SelectScreen LanthaScreen
Type: binding
Settings: read-out: % displacement
Method in brief: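 SelectScreen broad panel; activity (Z'LYTE, Adapta) plus binding formats. ATP: Km app for CSF1R Z'LYTE; 10 for CAMK1 Adapta. Readout = % per kinase.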

T1 sequence (Q9H2K8 whole entry): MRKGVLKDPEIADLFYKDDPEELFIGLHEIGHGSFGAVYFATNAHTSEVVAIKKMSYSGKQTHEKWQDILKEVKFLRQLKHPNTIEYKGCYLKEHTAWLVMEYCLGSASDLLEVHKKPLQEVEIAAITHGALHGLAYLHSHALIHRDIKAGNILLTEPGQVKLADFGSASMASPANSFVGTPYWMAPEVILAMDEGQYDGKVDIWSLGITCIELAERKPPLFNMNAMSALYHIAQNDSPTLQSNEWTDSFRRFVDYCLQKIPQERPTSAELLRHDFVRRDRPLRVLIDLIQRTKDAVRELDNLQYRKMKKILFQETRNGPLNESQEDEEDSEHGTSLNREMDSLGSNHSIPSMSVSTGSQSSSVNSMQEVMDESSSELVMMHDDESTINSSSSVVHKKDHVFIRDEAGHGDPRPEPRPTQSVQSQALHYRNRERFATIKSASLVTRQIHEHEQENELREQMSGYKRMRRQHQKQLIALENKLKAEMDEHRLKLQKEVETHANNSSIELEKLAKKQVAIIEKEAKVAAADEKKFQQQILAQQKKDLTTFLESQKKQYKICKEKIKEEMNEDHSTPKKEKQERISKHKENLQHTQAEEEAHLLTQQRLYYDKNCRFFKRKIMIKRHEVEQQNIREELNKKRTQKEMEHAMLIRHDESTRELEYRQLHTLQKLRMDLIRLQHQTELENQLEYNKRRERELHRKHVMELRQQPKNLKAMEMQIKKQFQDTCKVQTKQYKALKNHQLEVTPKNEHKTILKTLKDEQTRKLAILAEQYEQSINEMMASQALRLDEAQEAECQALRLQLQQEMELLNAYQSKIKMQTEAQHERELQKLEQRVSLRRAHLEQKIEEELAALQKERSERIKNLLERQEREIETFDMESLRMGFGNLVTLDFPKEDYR

Structure (SMILES): CN(C(=O)CN1CCOCC1)c1ccc2sc3c(-c4cccc5c(=O)cc(N6CC7CCC(C6)O7)oc45)cccc3c2c1 [NU5455]
- inhibition at 1 µM: 4.2%
